Molecules are shown by their SMILES. “And” between values parts separate entries of the source, which are not always exact repeats. Equal values may be shown once. “Also recorded” adds a separate entry of the source.

As a reminder, the IC50 is the concentration at which inhibition is half-maximal. Read a high IC50 as lower potency. For orientation: inhibition means the drop in the measured response relative to a control, in per cent.

One series deals with Swiss albino male mice. Briefly: Gross behavioral study. The following applies: 125 mg/kg oral dose; for cholinergic symptoms / side effects: upto 24 hrs of drug administration.
The target of series [1] is T1, Acetylcholinesterase (AChE) (Mus musculus, UniProt P21836).
T1 construct: A 10% (w/v) homogenate of brain was prepared; from tissue; host or cells: whole brain of adult Swiss albino mice; supernatant (100,000 g) of the 1% Triton X-100 treated homogenate
T1 sequence (P21836 32-614): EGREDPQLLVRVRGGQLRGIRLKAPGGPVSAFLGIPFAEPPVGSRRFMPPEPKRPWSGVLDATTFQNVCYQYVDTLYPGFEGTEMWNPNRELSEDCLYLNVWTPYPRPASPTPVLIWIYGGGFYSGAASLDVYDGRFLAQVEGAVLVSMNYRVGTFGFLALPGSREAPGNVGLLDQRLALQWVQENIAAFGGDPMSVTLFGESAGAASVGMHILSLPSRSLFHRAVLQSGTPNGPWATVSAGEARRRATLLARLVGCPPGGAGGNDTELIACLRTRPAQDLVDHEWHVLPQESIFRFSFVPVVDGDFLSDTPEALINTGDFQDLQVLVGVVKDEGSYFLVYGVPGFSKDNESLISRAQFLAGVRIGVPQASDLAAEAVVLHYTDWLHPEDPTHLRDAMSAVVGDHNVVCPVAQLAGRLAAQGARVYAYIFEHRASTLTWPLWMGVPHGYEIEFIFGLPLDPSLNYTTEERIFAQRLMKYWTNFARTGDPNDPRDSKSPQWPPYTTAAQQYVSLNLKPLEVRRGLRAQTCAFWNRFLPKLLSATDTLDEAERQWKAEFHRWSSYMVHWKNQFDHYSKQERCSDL
Briefly: Acetylcholinesterase (AChE) assay in brain (in vitro), Ellman method. The class given is biochemical, Swiss albino mice. The following applies: for inhibition at 10 µM / inhibition at 100 µM: read-out: % Inhibition of AChE enzyme. How it is done: Acetylcholinesterase (AChE) Assay in Brain (In Vitro)
The mice were perfused under mild ether anesthesia through heart with ice cooled normal saline (0.9% NaCl) to remove blood-born cholinesterase from the brain. After perfusion the whole brain was taken out. A 10% (w/v) homogenate of brain was prepared first by homogenizing in an Ultra-Turrax T25 homogenizer at a speed of 9500 rpm thrice giving intervals for few seconds in between the runs, with sodium phosphate buffer (0.03 M, pH-7)).
The brain homogenate in volume of 500 μl was mixed with 1% Triton X-100 (1% w/v in 0.03M sodium phosphate buffer, pH-7) and centrifuged at 100,000 g at 4° C. in a Beckman Ultracentrifuge (LE 80, USA), using a fixed angle rotor (80 ti) for 60 min. Supernatant was collected and stored at 4° C. for acetylcholinesterase estimation.
The assay for each sample was run in triplicate and each experiment was performed twice.
The specific activity of AChE is expressed in μM/min/mg of protein.
The test substance (dissolved in ethanol) was incubated with enzyme source in different concentrations ([…]) for 30 min at 37° C. prior to obtain kinetic profile of AChE activity. […] The AChE inhibitory activity was calculated on the basis of % decrease in AChE activity from control values i.e. AChE activity without incubation with any standard or test drug.
The results are expressed as mean±S.E.M. Statistical analysis of passive avoidance values were performed by t-test. The IC50 value was calculated by non linear regression method using GraphPad Prism software.
For orientation: In Ellman's method for cholinesterases, released thiocholine reacts with DTNB.

Series [2] concerns scopolamine induced amnesia in mice. Briefly: Passive avoidance test, scopolamine induced amnesia (in vivo). Details: species or system Swiss albino male mice. The following applies: oral 3.75, 7.5 and 15 mg/kg 1 hr prior to 1st trial, scopolamine 3 mg/kg IP, FIG. 3. The procedure:
Passive avoidance test is widely used as experimental model to assess learning and memory functions in rodents. Scopolamine induced impairment in passive avoidance (in vivo) and inhibition of acetylcholinesterase (in vitro) in rodents are commonly employed screening tests to predict potential of a compound as acetylcholinesterase inhibitor and anti-amnesic drug (Das et al., 2002).
[…]. Mice were kept in standard housing condition with 12 h light and dark cycle. The food and water were available ad libitum.
The passive avoidance test was carried out as described by Tota et al., 2009. The mice were subjected to the passive avoidance test by placing in a compartment with light at intensity of 8 [Scale from 0 to 10 (brightest)] in a computerized shuttle box with a software programme PACS 30 (Columbus Instruments, Ohio, USA).
The light compartment was isolated from the dark compartment by an automated guillotine door. After an acclimatization period of 30 s, the guillotine door was opened and closed automatically after entry of the mouse into the dark compartment. The subject received a low-intensity foot shock (0.5 mA; 10 s) in the dark compartment. Infrared sensors monitored the transfer of the animal from one compartment to another which was recorded as transfer latency time (TLT) in seconds. […]

`C#CCN1CCCc2ccc(OC(=O)Nc3ccccc3OC)cc21` [Compound 10e, 1-(prop-2-ynyl)-1,2,3,4-tetrahydroquinolin-7-yl 2-methoxyphenylcarbamate]: in the series on Swiss albino male mice, the tolerability entry is on record as “Well tolerated” and the “cholinergic symptoms / side effects” value was “No cholinergic symp-”. Also, in series [1], the IC50 worked out at 0.92 ± 0.12 µM, the inhibition at 10 µM turned out to be 95.4% and the inhibition at 100 µM worked out at 96.3%. In series [1] (comparison with rivastigmine), the “AChE inhibitory activity compared to rivastigmine” value is reported as “slightly better”.
As to `CN(C)C(=O)Oc1ccc2c(c1)N(Cc1ccccc1)CCC2` [Compound 8k, 1-benzyl-1,2,3,4-tetrahydroquinolin-7-yl dimethylcarbamate], in series [2], the “improvement in learning (transfer latency time, passive avoidance)” value was “shown potential towards the improvement in learning of mice and almost comparable to the drug Rivastigmine and Tacrine”. Also, in the series with Swiss albino male mice (125 mg/kg), the tolerability entry was “Well tolerated”; the “cholinergic symptoms / side effects” value is “no cholinergic symptoms and mortality was observed; also recorded: free from any observable side peripheral side effect; also recorded: No cholinergic symp-”. In addition, in series [1], the midpoint of inhibition, the IC50, lay at 0.099 ± 0.003 µM; the inhibition at 10 µM turned out to be 95.5%; the inhibition at 100 µM was found to be 98%. In addition, in series [1] (comparison with Tacrine), the “AChE inhibitory activity compared to Tacrine” value was “almost equal or even slightly better”. In addition, the “AChE inhibitory activity, fold better compared to the drug rivastigmine” value in series [1] (fold better than rivastigmine) was 12 fold and 10 fold.
On to `C#CCN1CCCc2ccc(OC(=O)NCCCCCCC)cc21` [Compound 10b, 1-(prop-2-ynyl)-1,2,3,4-tetrahydroquinolin-7-yl heptylcarbamate], for which, in the series with Swiss albino male mice, the tolerability result is given as “Well tolerated” and the “cholinergic symptoms / side effects” value is on record as “No cholinergic symp-”. In series [1], half-maximal inhibition (IC50) was put at 7.59 ± 0.62 µM, the inhibition at 10 µM amounted to 55.5% and the inhibition at 100 µM was 77.2%. For the same compound, the “AChE inhibitory activity, fold lower compared to the drug Rivastigmine” value in series [1] (fold lower than Rivastigmine) was found to be 7 fold.

(Values after US8946261B2, “Substituted 1, 2, 3, 4-tetrahydroquinolin-7-yl carbamates as acetylcholinesterase inhibitors for treatment of Alzheimer's disease” (priority 2011, dated 2015).)
